From patent US20100093719A1, “PHARMACOKINETICALLY IMPROVED COMPOUNDS” (SURFACE LOGIX, INC., priority 2005, published 2010)
Converted amounts (≈) assume the structure as drawn. Read-outs that look alike come from different tables or passages of the source.

Columns and labels:
[1] = PAMPA permeability; format: in vitro ADME
[2] = test system: Caco-2; experiment: Caco-2 permeability; format: in vitro ADME
Source text: Several model systems are available, employing monolayers of various cell types, for evaluation of active transport of pharmaceutically active substances. For example, monolayers of Caco-2 intestinal epithelial cells can be used to evaluate active transport of substances between the intestine and the bloodstream. When plated on a surface which allows the flow of material from apical to basolateral and vice versa, such cells form a biological membrane which can be used to simulate physiological absorption and bio-availability. In another example, mouse brain capillary endothelial cell (MBEC) lines have been established to evaluate active transport in and out of the central nervous system. Another example of such cells is HT29 human colon carcinoma cells. Further, monolayers expressing particular transporter proteins can be established using transfected cells. For example, Sasaki et al (2002) J. Biol. Chem. 8:6497 used a double-transfected Madin-Darby canine kidney cell monolayer to study transport of organic anions.

[3] = target: PDE5 (Homo sapiens, UniProt O76074); experiment: Phosphodiesterase inhibition PDE-5 human; format: biochemical
Experimental: (§1) Phosphodiesterase inhibition was determined by methods known to one of skill in the art.

[4] = Solubility; format: physicochemical
[5] = Non-specific binding; format: in vitro ADME
[6] = Cytotox GC50; format: cell-based
[7] = Cytotox LC50; settings: read-out: Cytotox LC50 Acute
[8] = RLM stability T1/2; format: in vitro ADME; settings: rat, liver microsomes
[9] = in vitro
[10] = target: PDE-6; experiment: Phosphodiesterase inhibition PDE-6; format: biochemical
Experimental: as §1

[11] = target: PDE-5 (Bos taurus, UniProt Q28156); experiment: Phosphodiesterase inhibition PDE-5 bovine; format: biochemical
Experimental: as §1

[12] = target: PDE-1; experiment: Phosphodiesterase inhibition PDE-1; format: biochemical
Experimental: as §1

[13] = target: PDE-3; experiment: Phosphodiesterase inhibition PDE-3; format: biochemical
Experimental: as §1

[14] = pH 2.7, aqueous buffer, read-out: Solubility pH 2.7
[15] = pH 7.4, aqueous buffer, read-out: Solubility pH 7.4

Row | Caco-2 AtoB [2] | Caco-2 BtoA [2] | Non-Spec Binding [5] [%] | SMILES | PAMPA Hex [1] | IC50 [3] [nM] | solubility [4, 14] [µM] | solubility [4, 15] [µM] | Cytotox GC50 [6] [nM] | CC50 [7] [nM] | half-life [8] [min] | CC50 [9] [nM] | IC50 [10] [nM] | IC50 [11] [nM] | IC50 [12] [nM] | IC50 [13] [nM] | PAMPA Lec [1]
1 | 5.15 10^−6 | 31.45 10^−6 |  | CCCc1nc(C)c2c(=O)[nH]c(-c3cc(S(=O)(=O)N(C)CC(=O)NC)ccc3OCC)nn12 [Compound 21] | 0.24 10^−6 | 0.25 | > 100 | > 100 |  |  |  |  |  |  |  |  | 
2 |  |  |  | CCCc1nc(C)c2c(=O)[nH]c(-c3cc(S(=O)(=O)N(C)C4(C(=O)N(C)C)CC4)ccc3OCC)nn12 [Compound 16] | 3.41 10^−6 | 0.42 | 74.7 (≈ 38.6 µg/mL) | 82.5 (≈ 42.6 µg/mL) | 100000 |  |  | ≥ 100000 |  |  |  |  | 
3 |  |  |  | CCCc1nc(C)c2c(=O)[nH]c(-c3cc(S(=O)(=O)N[C@@H](C)C(=O)N(C)C)ccc3OCC)nn12 [Compound 17] | 0.26 10^−6 | 0.66 | 70 (≈ 34.4 µg/mL) | 78.4 (≈ 38.5 µg/mL) | 100000 |  |  | ≥ 100000 |  |  |  |  | 
4 | 4.35 10^−6 | 35.58 10^−6 | 2.6 | CCCc1nc(C)c2c(=O)[nH]c(-c3cc(S(=O)(=O)N(C)CC(=O)N4CCN(C)CC4)ccc3OCC)nn12 [Compound 7] | 0.18 10^−6 | 0.535 | > 100 | > 100 |  |  |  |  |  |  |  |  | 
5 | 11.16 10^−6 | 55.15 10^−6 | 7.3 | CCCc1nc(C)c2c(=O)[nH]c(-c3cc(S(=O)(=O)N(C)CC(=O)N4CCOCC4)ccc3OCC)nn12 [Compound 6] | 0.78 10^−6 | 0.68 | > 100 | > 100 |  |  |  |  |  |  |  |  | 
6 | 2.33 10^−6 | 11.31 10^−6 | 9.8 | CCCc1nc(C)c2c(=O)[nH]c(-c3cc(S(=O)(=O)N(C)CC(=O)N(C)CCN(C)C)ccc3OCC)nn12 [Compound 9] | 0.03 10^−6 | 1.5 | > 100 | > 100 |  |  |  |  |  |  |  |  | 
7 | 42.03 10^−6 | 77.41 10^−6 | 19 | CCCc1nc(C)c2c(=O)[nH]c(-c3cc(S(=O)(=O)N(C)CC(=O)N(CC)CC)ccc3OCC)nn12 [Compound 8] | 21.81 10^−6 | 0.78 | > 100 | > 100 |  |  | 15 |  |  |  |  |  | 
8 |  |  |  | CCCc1nc(C)c2c(=O)[nH]c(-c3cc(S(=O)(=O)N(CC)CC(=O)N(CC)CC)ccc3OCC)nn12 [Compound 10] | 67.04 10^−6 | 0.32 | 77.9 (≈ 41.5 µg/mL) | 78.5 (≈ 41.8 µg/mL) |  |  |  |  |  |  |  |  | 
9 |  |  |  | CCCc1nc(C)c2c(=O)[nH]c(-c3cc(S(=O)(=O)N(C)[C@H](C)C(=O)NC)ccc3OCC)nn12 [Compound 14] | 0.47 10^−6 | 0.35 | 62.6 (≈ 30.7 µg/mL) | 64 (≈ 31.4 µg/mL) | 88000 |  |  | ≥ 100000 |  |  |  |  | 
10 |  |  |  | CCCc1nc(C)c2c(=O)[nH]c(-c3cc(S(=O)(=O)N(C)[C@@H](C)C(=O)NC)ccc3OCC)nn12 [Compound 13] | 0.42 10^−6 | 0.17 | 69.4 (≈ 34 µg/mL) | 74.6 (≈ 36.6 µg/mL) | 94000 |  |  | ≥ 100000 |  |  |  |  | 
11 | 2.97 10^−6 | 25.95 10^−6 | 7 | CCCc1nc(C)c2c(=O)[nH]c(-c3cc(S(=O)(=O)N(C)CC(=O)N(C)CC(=O)N(C)C)ccc3OCC)nn12 [Compound 4] | 0.47 10^−6 | 0.11 | 112 (≈ 62.9 µg/mL) | 109 (≈ 61.2 µg/mL) |  |  | 64 |  |  | 0.084 |  |  | 0.056 10^−6
12 | 19.4 10^−6 | 60.2 10^−6 |  | CCCc1nc(C)c2c(=O)[nH]c(-c3cc(S(=O)(=O)N4CCCC4C(=O)N(C)C)ccc3OCC)nn12 (centres unmarked) [Compound 5] | 13.18 10^−6 | 2.3 | 100 (≈ 51.7 µg/mL) | 93 (≈ 48 µg/mL) |  |  | 30.1 |  |  | 1.6 |  |  | 
13 |  |  |  | CCCc1nc(C)c2c(=O)[nH]c(-c3cc(S(=O)(=O)N[C@H](C)C(=O)N(C)C)ccc3OCC)nn12 [Compound 18] | 0.18 10^−6 | 0.36 | 70.3 (≈ 34.5 µg/mL) | 75.8 (≈ 37.2 µg/mL) | 100000 |  |  | ≥ 100000 |  |  |  |  | 

Row | SMILES | Caco-2 AtoB [2] | Caco-2 BtoA [2] | Non-Spec Binding [5] [%] | PAMPA Hex [1] | IC50 [3] [nM] | solubility [4, 14] [µM] | solubility [4, 15] [µM] | Cytotox GC50 [6] [nM] | CC50 [7] [nM] | half-life [8] [min] | CC50 [9] [nM] | IC50 [10] [nM] | IC50 [11] [nM] | IC50 [12] [nM] | IC50 [13] [nM] | PAMPA Lec [1]
14 | CCCc1nc(C)c2c(=O)[nH]c(-c3cc(S(=O)(=O)N(C)[C@@H](C)C(=O)N(C)C)ccc3OCC)nn12 [Compound 12] | 33.39 10^−6 | 50.43 10^−6 | 30.7 | 13.93 10^−6 | 0.298 | 96 (≈ 48.4 µg/mL) | 100 (≈ 50.5 µg/mL) | 99300 | 100000 | 32.2 | ≥ 100000 |  |  |  |  | 
15 | CCCc1nc(C)c2c(=O)[nH]c(-c3cc(S(=O)(=O)N(C)[C@H](C)C(=O)N(C)C)ccc3OCC)nn12 [Compound 2] | 33.33 10^−6 | 61.33 10^−6 | 20.7 | 18.2 10^−6 | 0.0395 | > 100 | > 100 | 94600 | 100000 | 32.6 | ≥ 100000 | 0.605 | 0.101 | 13 | 507 | 
16 | CCCc1nc(C)c2c(=O)[nH]c(-c3cc(S(=O)(=O)N(C)C(C)(C)C(=O)N(C)C)ccc3OCC)nn12 [Compound 3] | 28.85 10^−6 | 58.45 10^−6 | 14.3 | 9.11 10^−6 | 0.16 | > 100 | > 100 | 100000 | 100000 | 72.7 | ≥ 100000 | 1.7 | 0.138 | 10 | 412 | 
17 | CCCc1nc(C)c2c(=O)[nH]c(-c3cc(S(=O)(=O)N(C)C(C)(C)C(=O)NC)ccc3OCC)nn12 [Compound 15] | 6.8 10^−6 | 34.9 10^−6 |  | 0.25 10^−6 | 0.256 |  |  | 95000 |  |  | ≥ 100000 |  |  |  |  | 
18 | CCCc1nc(C)c2c(=O)[nH]c(-c3cc(S(=O)(=O)NC(C)(C)C(=O)N(C)C)ccc3OCC)nn12 [Compound 19] | 2.43 10^−6 | 33 10^−6 |  | 0.17 10^−6 | 0.193 | > 100 | 7.1 (≈ 3.58 µg/mL) | 100000 |  |  | ≥ 100000 |  |  |  |  | 
19 | CCCc1nc(C)c2c(=O)[nH]c(-c3cc(S(=O)(=O)N(C)CC(=O)N(C)C)ccc3OCC)nn12 [Compound 1] | 17.46 10^−6 | 48.88 10^−6 | 11.07 | 5.49 10^−6 | 0.097 | > 100 | 96.1 (≈ 47.2 µg/mL) | 76700 | 100000 | 22 | 75000 | 3.5 | 0.122 | 25 | 986 | 0.128 10^−6
